# Tests used:
# STK33 = STK33 (Homo sapiens, UniProt Q9BYT3); assay: biochemical; details: read-out: Percent Control
# CDKL2 = CDKL2 (Homo sapiens, UniProt Q92772); details: 1 µM; binder
# LIMK1 = LIMK1 (Homo sapiens, UniProt P53667); details: 1 µM; binder
# ICK = ICK (Homo sapiens, UniProt Q9UPZ9); details: 1 µM; binder
# PAK6 = PAK6 (Homo sapiens, UniProt Q9NQU5); details: 1 µM; binder
# MAP3K2 = MAP3K2 (Homo sapiens, UniProt Q9Y2U5); details: 1 µM; binder
# IRAK4 = IRAK4 (Homo sapiens, UniProt Q9NWZ3); details: 1 µM; binder
# TGFBR2 = TGFBR2 (Homo sapiens, UniProt P37173); details: 1 µM; binder
# VRK2 = VRK2 (Homo sapiens, UniProt Q86Y07); details: 1 µM; binder
# PDPK1 = PDPK1 (Homo sapiens, UniProt O15530); details: 1 µM; binder
# TXK = TXK (Homo sapiens, UniProt P42681); details: 1 µM; binder
# OSR1 = OSR1 (Homo sapiens, UniProt O95747); details: 1 µM; binder
# Chain of OSR1 (O95747 whole entry): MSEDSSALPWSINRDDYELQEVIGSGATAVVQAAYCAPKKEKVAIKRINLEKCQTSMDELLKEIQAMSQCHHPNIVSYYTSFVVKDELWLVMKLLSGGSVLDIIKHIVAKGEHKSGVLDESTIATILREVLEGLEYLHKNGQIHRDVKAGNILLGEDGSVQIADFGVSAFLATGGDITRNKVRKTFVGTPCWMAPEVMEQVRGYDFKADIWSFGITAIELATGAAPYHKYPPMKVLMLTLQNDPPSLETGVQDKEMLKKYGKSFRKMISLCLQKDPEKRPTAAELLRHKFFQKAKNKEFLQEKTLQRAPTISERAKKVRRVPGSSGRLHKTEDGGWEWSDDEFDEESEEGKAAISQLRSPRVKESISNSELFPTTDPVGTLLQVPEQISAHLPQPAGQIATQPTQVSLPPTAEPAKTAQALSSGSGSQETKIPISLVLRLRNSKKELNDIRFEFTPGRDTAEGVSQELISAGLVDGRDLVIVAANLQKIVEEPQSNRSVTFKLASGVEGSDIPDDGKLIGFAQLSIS
# TIE2 = TIE2 (Homo sapiens, UniProt Q02763); details: 1 µM; binder
# Chain of TIE2 (Q02763 whole entry): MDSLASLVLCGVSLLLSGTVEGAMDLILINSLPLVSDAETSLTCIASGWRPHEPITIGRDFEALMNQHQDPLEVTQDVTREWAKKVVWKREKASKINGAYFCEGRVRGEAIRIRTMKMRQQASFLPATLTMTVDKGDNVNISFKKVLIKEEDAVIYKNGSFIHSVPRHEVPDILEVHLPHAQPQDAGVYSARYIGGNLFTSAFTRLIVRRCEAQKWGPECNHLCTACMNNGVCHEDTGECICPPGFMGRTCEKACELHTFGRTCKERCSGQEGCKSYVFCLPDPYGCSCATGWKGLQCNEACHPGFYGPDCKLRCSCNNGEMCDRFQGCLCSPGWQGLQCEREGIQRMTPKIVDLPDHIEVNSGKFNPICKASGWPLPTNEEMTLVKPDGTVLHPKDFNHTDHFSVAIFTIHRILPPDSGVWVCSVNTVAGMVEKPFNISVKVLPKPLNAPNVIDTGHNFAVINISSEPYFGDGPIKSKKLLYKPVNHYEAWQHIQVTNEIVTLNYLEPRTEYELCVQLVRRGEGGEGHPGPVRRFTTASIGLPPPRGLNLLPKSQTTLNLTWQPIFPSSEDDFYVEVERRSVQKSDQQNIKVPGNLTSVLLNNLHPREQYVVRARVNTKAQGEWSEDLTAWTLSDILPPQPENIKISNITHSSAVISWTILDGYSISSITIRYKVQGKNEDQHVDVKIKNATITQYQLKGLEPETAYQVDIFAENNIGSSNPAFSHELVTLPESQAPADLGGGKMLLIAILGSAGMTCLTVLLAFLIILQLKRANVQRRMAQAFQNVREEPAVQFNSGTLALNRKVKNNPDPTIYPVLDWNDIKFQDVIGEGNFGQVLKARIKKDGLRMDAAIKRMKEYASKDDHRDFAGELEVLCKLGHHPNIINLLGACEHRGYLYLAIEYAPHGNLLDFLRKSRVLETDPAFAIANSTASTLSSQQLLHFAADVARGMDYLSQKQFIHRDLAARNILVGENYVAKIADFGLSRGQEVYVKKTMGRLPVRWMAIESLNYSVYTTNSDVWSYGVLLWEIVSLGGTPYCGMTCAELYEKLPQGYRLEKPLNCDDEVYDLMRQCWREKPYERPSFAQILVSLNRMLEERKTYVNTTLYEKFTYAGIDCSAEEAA
# FGFR3(G697C) = FGFR3(G697C) (Homo sapiens, UniProt P22607, G697C); details: 1 µM; binder
# MAP4K4 = MAP4K4 (Homo sapiens, UniProt O95819); details: 1 µM; binder
# DDR2 = DDR2 (Homo sapiens, UniProt Q16832); details: 1 µM; binder
# PKAC-beta = PKAC-beta (Homo sapiens, UniProt P22694); details: 1 µM; binder
# NEK11 = NEK11 (Homo sapiens, UniProt Q8NG66); details: 1 µM; binder
# ACVR2B = ACVR2B (Homo sapiens, UniProt Q13705); details: 1 µM; binder
# ERBB4 = ERBB4 (Homo sapiens, UniProt Q15303); details: 1 µM; binder
# EPHB2 = EPHB2 (Homo sapiens, UniProt P29323); details: 1 µM; binder
# BMPR1A = BMPR1A (Homo sapiens, UniProt P36894); details: 1 µM; binder
# CHEK2 = CHEK2 (Homo sapiens, UniProt O96017); details: 1 µM; binder
# DSTYK = DSTYK (Homo sapiens, UniProt Q6XUX3); details: 1 µM; binder
# Chain of DSTYK (Q6XUX3 whole entry): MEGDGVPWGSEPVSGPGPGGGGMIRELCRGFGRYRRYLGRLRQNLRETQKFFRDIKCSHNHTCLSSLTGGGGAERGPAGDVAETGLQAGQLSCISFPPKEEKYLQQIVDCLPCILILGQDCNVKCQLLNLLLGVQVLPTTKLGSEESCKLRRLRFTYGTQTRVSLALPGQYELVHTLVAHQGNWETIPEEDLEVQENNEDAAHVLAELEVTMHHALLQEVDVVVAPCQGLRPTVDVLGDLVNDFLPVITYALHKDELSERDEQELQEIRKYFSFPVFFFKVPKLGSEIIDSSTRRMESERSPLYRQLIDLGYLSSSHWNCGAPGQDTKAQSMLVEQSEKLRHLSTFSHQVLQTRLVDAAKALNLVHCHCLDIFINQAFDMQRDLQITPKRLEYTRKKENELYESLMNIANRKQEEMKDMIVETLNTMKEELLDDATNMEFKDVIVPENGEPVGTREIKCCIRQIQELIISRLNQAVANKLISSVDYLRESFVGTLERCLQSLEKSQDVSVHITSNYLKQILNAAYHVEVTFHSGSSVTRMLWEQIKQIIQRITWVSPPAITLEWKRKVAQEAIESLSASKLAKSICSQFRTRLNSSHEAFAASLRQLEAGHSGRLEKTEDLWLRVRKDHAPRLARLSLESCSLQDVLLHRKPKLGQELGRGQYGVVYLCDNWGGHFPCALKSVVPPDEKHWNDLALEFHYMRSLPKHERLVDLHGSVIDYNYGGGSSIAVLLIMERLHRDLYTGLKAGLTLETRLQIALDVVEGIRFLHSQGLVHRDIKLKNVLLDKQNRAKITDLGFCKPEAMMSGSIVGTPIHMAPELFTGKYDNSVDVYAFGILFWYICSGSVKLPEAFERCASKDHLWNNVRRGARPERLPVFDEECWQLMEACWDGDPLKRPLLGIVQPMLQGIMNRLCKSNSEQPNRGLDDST
# MARK3 = MARK3 (Homo sapiens, UniProt P27448); details: 1 µM; binder
# FGFR2 = FGFR2 (Homo sapiens, UniProt P21802); details: 1 µM; binder
# JNK1 = JNK1 (Homo sapiens, UniProt P45983); details: 1 µM; binder
# AXL = AXL (Homo sapiens, UniProt P30530); details: 1 µM; binder
# Chain of AXL (P30530 whole entry): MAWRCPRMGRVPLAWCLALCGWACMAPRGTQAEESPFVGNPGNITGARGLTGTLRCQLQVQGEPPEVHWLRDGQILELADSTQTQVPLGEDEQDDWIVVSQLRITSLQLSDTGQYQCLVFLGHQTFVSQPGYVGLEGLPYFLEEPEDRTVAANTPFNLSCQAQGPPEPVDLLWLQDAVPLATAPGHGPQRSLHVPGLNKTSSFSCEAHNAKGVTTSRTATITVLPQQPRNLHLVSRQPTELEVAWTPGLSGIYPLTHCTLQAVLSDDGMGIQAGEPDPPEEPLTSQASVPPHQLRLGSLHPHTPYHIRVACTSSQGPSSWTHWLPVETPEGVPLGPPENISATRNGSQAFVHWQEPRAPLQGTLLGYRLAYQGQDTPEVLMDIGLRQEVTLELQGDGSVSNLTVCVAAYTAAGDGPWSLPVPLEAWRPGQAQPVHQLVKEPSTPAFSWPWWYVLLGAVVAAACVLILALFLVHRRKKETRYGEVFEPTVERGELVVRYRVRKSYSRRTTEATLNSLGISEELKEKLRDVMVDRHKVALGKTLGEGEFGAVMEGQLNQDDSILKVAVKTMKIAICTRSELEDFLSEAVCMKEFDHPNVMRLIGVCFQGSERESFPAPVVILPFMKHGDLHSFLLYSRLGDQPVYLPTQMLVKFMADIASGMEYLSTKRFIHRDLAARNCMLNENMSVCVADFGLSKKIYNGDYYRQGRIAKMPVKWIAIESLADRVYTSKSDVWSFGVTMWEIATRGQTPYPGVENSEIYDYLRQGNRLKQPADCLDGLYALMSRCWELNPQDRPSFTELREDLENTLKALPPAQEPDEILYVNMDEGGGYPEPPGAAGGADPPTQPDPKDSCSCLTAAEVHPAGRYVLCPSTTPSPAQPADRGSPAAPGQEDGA
# CDK19 = CDK19 (Homo sapiens, UniProt Q9BWU1); details: 1 µM; binder
# [1] = target: RPS6KA5(Kin.Dom.2-C-terminal) (Homo sapiens, UniProt O75582); details: 0.1 µM; binder
# Chain of RPS6KA5(Kin.Dom.2-C-terminal) (O75582 whole entry): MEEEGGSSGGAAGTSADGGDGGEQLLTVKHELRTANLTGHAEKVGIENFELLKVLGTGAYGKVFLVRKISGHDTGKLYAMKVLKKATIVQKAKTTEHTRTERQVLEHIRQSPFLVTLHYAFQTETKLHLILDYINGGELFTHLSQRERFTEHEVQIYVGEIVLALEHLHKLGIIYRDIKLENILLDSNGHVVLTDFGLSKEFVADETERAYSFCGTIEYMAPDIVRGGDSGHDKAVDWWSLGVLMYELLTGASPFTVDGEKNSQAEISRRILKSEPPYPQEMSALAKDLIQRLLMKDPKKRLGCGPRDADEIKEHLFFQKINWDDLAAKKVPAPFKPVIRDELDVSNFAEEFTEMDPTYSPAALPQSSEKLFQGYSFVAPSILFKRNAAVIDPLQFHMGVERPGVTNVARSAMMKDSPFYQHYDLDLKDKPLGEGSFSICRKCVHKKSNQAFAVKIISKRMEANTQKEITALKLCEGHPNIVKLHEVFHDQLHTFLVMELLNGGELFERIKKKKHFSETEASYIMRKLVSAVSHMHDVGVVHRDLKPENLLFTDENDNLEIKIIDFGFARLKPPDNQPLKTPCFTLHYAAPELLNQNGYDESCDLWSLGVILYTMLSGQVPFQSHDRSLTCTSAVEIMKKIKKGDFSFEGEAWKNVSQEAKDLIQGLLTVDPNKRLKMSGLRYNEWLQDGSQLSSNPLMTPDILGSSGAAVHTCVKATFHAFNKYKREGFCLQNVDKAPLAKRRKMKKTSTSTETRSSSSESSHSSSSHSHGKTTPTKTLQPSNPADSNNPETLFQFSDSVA
# Chain of PAK6 (Q9NQU5 whole entry): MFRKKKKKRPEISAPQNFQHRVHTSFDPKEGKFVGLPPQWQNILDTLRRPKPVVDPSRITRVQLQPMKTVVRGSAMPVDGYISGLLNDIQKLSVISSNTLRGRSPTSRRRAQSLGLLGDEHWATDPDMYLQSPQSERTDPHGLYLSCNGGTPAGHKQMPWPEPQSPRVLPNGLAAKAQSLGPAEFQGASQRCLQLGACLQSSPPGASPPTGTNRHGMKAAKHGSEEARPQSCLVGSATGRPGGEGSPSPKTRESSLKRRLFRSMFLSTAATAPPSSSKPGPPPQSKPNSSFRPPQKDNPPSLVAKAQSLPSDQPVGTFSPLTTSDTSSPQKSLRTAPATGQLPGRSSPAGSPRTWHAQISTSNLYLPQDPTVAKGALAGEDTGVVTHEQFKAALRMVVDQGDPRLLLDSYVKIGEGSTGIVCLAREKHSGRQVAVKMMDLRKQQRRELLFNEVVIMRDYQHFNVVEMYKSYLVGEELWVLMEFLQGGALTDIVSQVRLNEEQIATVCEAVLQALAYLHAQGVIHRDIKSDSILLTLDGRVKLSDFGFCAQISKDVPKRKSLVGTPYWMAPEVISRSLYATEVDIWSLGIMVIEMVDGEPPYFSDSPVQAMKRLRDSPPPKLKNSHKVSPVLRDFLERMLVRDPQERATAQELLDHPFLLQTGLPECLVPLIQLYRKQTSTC
smiles,measurement,setting,value
"CNc1ncc2cc(-c3ccc(-c4cccc(C)n4)cc3Cl)c(=O)n(C[C@H]3OC[C@H](N)CO3)c2n1 [compound 6, G-5555]",remaining activity at 0.1 µM,STK33,100%
same,Percent Control,CDKL2,58%
same,Percent Control,LIMK1,59%
same,Percent Control,ICK,100%
same,Percent Control,PAK6,45%
same,Percent Control,MAP3K2,67%
same,Percent Control,IRAK4,95%
same,Percent Control,TGFBR2,100%
same,Percent Control,VRK2,100%
same,Percent Control,PDPK1,71%
same,Percent Control,TXK,100%
same,Percent Control,OSR1,100%
same,Percent Control,TIE2,52%
same,Percent Control,FGFR3(G697C),100%
same,Percent Control,MAP4K4,100%
same,Percent Control,DDR2,100%
same,Percent Control,PKAC-beta,95%
same,Percent Control,NEK11,100%
same,Percent Control,ACVR2B,100%
same,Percent Control,ERBB4,100%
same,Percent Control,EPHB2,79%
same,Percent Control,BMPR1A,85%
same,Percent Control,CHEK2,100%
same,Percent Control,DSTYK,91%
same,Percent Control,MARK3,18%
same,Percent Control,FGFR2,100%
same,Percent Control,JNK1,41%
same,Percent Control,AXL,96%
same,Percent Control,CDK19,100%
same,Percent Control,[1],100%

# Reference: publication doi:10.1101/2021.04.08.439011v1 (biorxiv, 2021)
